In patent publication US10413535B2, “Pharmaceutical compositions comprising an integrin ALPHA4 antagonist for use in treating ocular inflammatory conditions” (AXEROVISION, INC., priority 2015, dated 2019):
“Also recorded” adds a separate entry of the source. Read-outs that look alike come from different tables or passages of the source.

Experiments:
[1] = test system: C57BL/6 mice subjected to desiccating stress; assay: Corneal OGD staining in murine desiccating stress model; type: in vivo, mouse
Description: Female C57BL/6 mice, aged 6 to 8 weeks, were subjected to DS for 5 days (DS5) as described previously (de Paiva et al., 2006b; Niederkorn et al., 2006). Topical bilateral treatment with 1 eye drop per eye (2 μL volume) or subcutaneous injection (4 μL volume), 2 times per day, was initiated on day 1 concurrently with DS and continued through day 4. Treatment with the compound of formula I or dexamethasone phosphate 0.1% was compared to correspondingly treated vehicle controls. Mice were randomized to receive one of the test articles. Control mice were kept in a non-stressed (NS) environment maintained at 50-75% relative humidity without exposure to airflow or scopolamine and were not treated with test or control article. Treatment effects were assessed on corneal staining with Oregon Green Dextran (OGD); expression of inflammatory markers in ocular surface tissues by real time PCR; cell population analysis in draining cervical lymph nodes by FACS analysis; conjunctival T cell infiltration by immunohistochemistry.
On the morning of the 5th day, mice received one s.c. dose of scopolamine. Two hours later corneal staining was assessed using Oregon Green Dextran (OGD-488), which is a conjugated fluorescent dye of a 70 kDa molecular size (Invitrogen-Molecular Probes) as previously described (de Paiva et al., 2006b). The procedure consisted of instillation of 0.5 μL of OGD on the cornea using a glass capillary pipette, 1 minute before euthanasia. Mice were euthanized by inhalation of isoflurane gas followed by cervical dislocation. Eyes were then rinsed with 2 mL of BSS. Excess liquid was carefully blotted from the ocular surface with filter papers without touching the cornea. Digital pictures of both eyes were taken under 470 nm excitation and 488 nm emission wave lengths using a Nikon SMZ-1500 stereo microscope, with an exposure time of 2 seconds. Both eyes from each animal were evaluated; the right eye always first followed by the left eye. The mean intensity in the central cornea was evaluated from digital images using NIS Elements (version 3.0) by placing a fixed region of interest (a 2-mm diameter circle) on the central cornea. The mean intensity of the fluorescence was read by the software and stored in a database (Excel, Microsoft). This fluorescence measurement in the central ring was done independently by 2 masked observers, for each mouse eye. By the conclusion of the experiment, results were averaged from both observers using all data collected during all study weeks (Excel, Microsoft). Results are presented as geometric mean±95% confidence interval of gray levels.
Due to skewed distribution of OGD data, the analysis was done on the log 10 scale to make the data more normally distributed. Log 10 OGD data was averaged across two observers and the left and right eyes. The mixed effects ANOVA model included treatment group as a fixed effect and week as a random effect. 95% and 99% confidence intervals were constructed for the disease (5 day DS vs untreated group kept in separate vivarium) and compound treatment effects (treatment vs vehicle). As these comparisons were all pre-planned (comparing each treatment to its vehicle group), no adjustment was made for multiplicity. […] T cell density was calculated for each section and averaged across sections for each animal. […]

[2] = test system: J6 cell adhesion to MAdCAM; assay: MAdCAM cell adhesion assay, J6 cells; type: cell-based, human
Description: Jurkat J6 cells (human lymphoblast cell line) were grown as a suspension culture in RPMI 1640 supplemented with FCS (10%) and glutamine (2 mM). RPMI8866 cells (human B lymphoid cell line) were grown as a suspension culture in RPMI 1640 supplemented with FCS (10%) and glutamine (2 mM). RBL-2H3 cells (rat basophilic cell line) were cultured in Eagle's MEM plus Earles salts supplemented with 2 mM L-glutamine, 1 mM sodium pyruvate, 1× non-essential amino acids, 1 mM Na pyruvate 10% heat inactivated foetal calf serum.
Polystyrene 96-well microtitre plates were coated with IgG at a concentration of 0.05 mg/mL in bicarbonate buffer for 2.5 hours at 37° C. The solution was aspirated and the plates washed twice with PBS. The plates were then incubated overnight at 4° C. with MAdCAM at a concentration of 204.0 ng/mL in 3% BSA in PBS. Prior to use the MAdCAM was aspirated and the plates washed twice with PBS. J6 or RPMI cells (as required) were labelled with the fluorescent dye BCECF-AM (10 μM and 6×10^6 cells/mL) for 10 min at 37° C. before the excess was removed by centrifugation at 500 g for 5 min and the cells resuspended at a cell concentration of 1.2×10^7 cells/mL in HBSS. Equal volumes of HBSS containing the compound of formula I (over concentration range 38.1 pM to 10 μM) and cells were added to the MAdCAM coated plates. […] The plates were counted in a Wallac Viktor.

[3] = PK study in rabbits, ocular tissue concentrations (LC-MS/MS); type: in vivo, New Zealand White rabbits; conditions: for Tmax: topical or ocular, both studies; for concentration at 6 h: persisted up to 6 hours
Description: The potassium salt of GW559090, referred to herein as GW559090A, was given to male New Zealand White rabbits by topical ocular administration as a single bilateral drop (Study #1: n=2 rabbits/4 eyes per time point; Study #2: n=3 rabbits/6 eyes per time point). At designated times (0.5, 1, 3, 6 hours post administration), ocular tissues were collected and processed for analysis. Concentrations of GW559090 were measured in cornea and bulbar conjunctiva by liquid chromatography with tandem mass spectrometry (LC-MS/MS).

[4] = male, New Zealand White, rabbit, conjunctiva, topical, 40 μL (50 mg/mL) GW559090A, read-out: Conjunctival tissue concentration
[5] = male, New Zealand White, rabbit, cornea, topical, 40 μL (50 mg/mL) GW559090A, read-out: Corneal tissue concentration
[6] = single topical 40 μL (50 mg/mL) GW559090A

Cc1ccccc1OCC(=O)N[C@@H](CC(C)C)C(=O)N[C@@H](Cc1ccc(OC(=O)N2CCC(C(N)=O)CC2)cc1)C(=O)O [GW559090, (2S)-3-[4-({[4-(Aminocarbonyl)-1-piperidinyl]carbonyl}oxy)phenyl]-2-[((2S)-4-methyl-2-{[2-(2-methylphenoxy)acetyl]amino}pentanoyl)amino]propanoic acid]
OGD intensity score (corneal barrier disruption) ([1]; subcutaneous 120 μg 2 times per day, 5 days DS): not observed
OGD intensity score (corneal staining / corneal barrier disruption) ([1]; topical bilateral 2 times per day, 5 days DS, vs vehicle (GW559090 1-30 mg/mL; Dex 0.1%), listed as compound of formula I): significant decrease; also recorded: significantly decreased; also recorded: dose-dependently prevents
Most efficacious concentration on OGD intensity score ([1]; topical, 1 to 30 mg/mL investigated): 30 mg/mL
Inhibition of J6 cell adhesion to MAdCAM (curve form) [2]: biphasic
Mean cornea concentrations versus mean conjunctiva concentrations ([3]; 3 and 6 hour postdose): higher
Tmax ([3]; male, New Zealand White, rabbit, bulbar conjunctiva, single topical 40 μL (50 mg/mL) GW559090A, read-out: Tmax in bulbar conjunctiva): 60 min
concentration at 30 min [3, 4]: > 3000 ng/mL
concentration at 6 h [3, 4]: ~358 ng/mL
Tmax ([3]; male, New Zealand White, rabbit, cornea, single topical 40 μL (50 mg/mL) GW559090A, read-out: Tmax in cornea): 30 min
concentration at 30 min [3, 5]: > 3000 ng/mL
concentration at 3 h ([3]; male, New Zealand White, rabbit, cornea, topical, at 3 hours, 40 μL (50 mg/mL) GW559090A, read-out: Corneal tissue concentration): > 1000 ng/mL
concentration at 6 h [3, 5]: ~358 ng/mL
Mean conjunctiva concentrations quantifiable through [3, 6]: 6 h
Mean cornea concentrations quantifiable through [3, 6]: 6 h
